Test results taken from patent US20260325540A1 (priority 2023, published 2026).

Molecular target: HCoV-229E 3CL protease (Human coronavirus 229E, UniProt P0C6U2)
Test: FRET based protease assay, HCoV-229E 3CL
Type: biochemical
Details: 229E IC50, 6 nM H229E-CoV Chis-3CLpro, 6 μM peptide 1 substrate, 25° C., 1.5 hrs, pH 7.5

Sequence of HCoV-229E 3CL protease (P0C6U2 2966-3267): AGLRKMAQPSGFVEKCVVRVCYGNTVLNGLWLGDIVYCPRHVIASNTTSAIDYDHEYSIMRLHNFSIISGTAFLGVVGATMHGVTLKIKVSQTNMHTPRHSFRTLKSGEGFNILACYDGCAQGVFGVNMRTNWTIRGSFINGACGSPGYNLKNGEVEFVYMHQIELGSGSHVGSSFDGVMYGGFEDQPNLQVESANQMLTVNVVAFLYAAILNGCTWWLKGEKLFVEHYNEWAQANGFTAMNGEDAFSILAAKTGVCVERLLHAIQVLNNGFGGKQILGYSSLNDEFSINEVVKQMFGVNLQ

Compound	IC50
CC(C)C[C@@H]1NC(=O)CCCCCC[C@H]2CNCC(=O)[C@@H]2C[C@@H](C=O)NC1=O [Example 52]	100 to 1000 nM
CC(C)C[C@@H]1NC(=O)[C@@H](NC(=O)OC(C)(C)C)CCC[C@@H]2CNC(=O)[C@@H]2C[C@@H](C=O)NC1=O [Example 16]	1000 to 20000 nM
CC1(C)[C@@H]2[C@H]3C(=O)N[C@H](C#N)C[C@@H]4C(=O)NC[C@@H]4CCCC[C@H](Nc4nccc(C(F)(F)F)n4)C(=O)N3C[C@@H]21 [Example 162]	< 100 nM
CC(C)C[C@@H]1NC(=O)[C@@H](NC(=O)OC(C)(C)C)CCC[C@H]2CNC(=O)[C@@H]2C[C@@H](C=O)NC1=O [Example 19]	< 100 nM
CC(C)(C)C(=O)N[C@H]1CCCC[C@H]2CNC(=O)[C@H]2C[C@@H](C#N)NC(=O)[C@H](C2CCCC2)NC1=O [Example 80]	100 to 1000 nM
CC(C)C[C@@H]1NC(=O)[C@@H](NC(=O)C(C)(C)C)CC/C=C/[C@H]2CNC(=O)[C@H]2C[C@@H](C#N)NC1=O [Example 58]	< 100 nM
CC(C)(C(=O)N[C@H]1CCCC[C@H]2CNC(=O)[C@H]2C[C@@H](C#N)NC(=O)[C@@H]2[C@@H]3[C@H](CN2C1=O)C3(C)C)c1ccc(Cl)cc1 [Example 121]	< 100 nM
CC(C)(C)C(=O)N[C@H]1CCCC[C@H]2CCNC(=O)[C@@H]2C[C@@H](C#N)NC(=O)[C@@H]2[C@@H]3[C@H](CN2C1=O)C3(C)C [Example 65]	1000 to 20000 nM
CC(C)(C)OC(=O)N[C@H]1CCCC[C@H]2CCNC(=O)[C@H]2C[C@@H](C#N)NC(=O)[C@@H]2[C@@H]3[C@H](CN2C1=O)C3(C)C [Example 110]	< 100 nM
CC(C)(C)OC(=O)N[C@H]1CC/C=C/[C@H]2CCNC(=O)[C@H]2C[C@@H](C#N)NC(=O)[C@@H]2[C@H]3CCC[C@H]3CN2C1=O [Example 99]	1000 to 20000 nM
CC1(C)[C@@H]2[C@H]3C(=O)N[C@H](C#N)C[C@@H]4C(=O)NC[C@@H]4CCCC[C@H](NC(=O)CC4CC(F)(F)C4)C(=O)N3C[C@@H]21 [Example 89]	< 100 nM
CC(C)C[C@@H]1NC(=O)[C@@H](Cc2ccc(F)cc2)CCCC[C@@H]2CNC(=O)[C@@H]2C[C@@H](C#N)NC1=O [Example 42]	100 to 1000 nM
CC1(C)[C@@H]2[C@H]3C(=O)N[C@H](C#N)C[C@@H]4C(=O)NC[C@@H]4CCCC[C@H](NC(=O)c4ccc(F)c(C(F)(F)F)c4)C(=O)N3C[C@@H]21 [Example 116]	< 100 nM
CC(C)(C)C[C@@H]1NC(=O)[C@@H](NC(=O)c2ccc(F)c(C(F)(F)F)c2)CCCC[C@H]2CNC(=O)[C@H]2C[C@@H](C#N)NC1=O [Example 142]	100 to 1000 nM
CC1(C)[C@@H]2[C@H]3C(=O)N[C@H](C#N)C[C@@H]4C(=O)NC[C@@H]4CCCC[C@H](NC(=O)c4ccc(F)cc4F)C(=O)N3C[C@@H]21 [Example 103]	< 100 nM
CC1(C)[C@@H]2[C@H]3C(=O)N[C@H](C#N)C[C@@H]4C(=O)NC[C@@H]4CCCC[C@H](Nc4ccnc(C(F)(F)F)n4)C(=O)N3C[C@@H]21 [Example 164]	< 100 nM
CC(C)(C)C[C@@H]1NC(=O)[C@@H](NC(=O)c2ccc(Cl)c(Cl)c2)CCCC[C@H]2CNC(=O)[C@H]2C[C@@H](C#N)NC1=O [Example 136]	< 100 nM
CC(C)(C)OC(=O)N[C@@H]1CCCC[C@H]2CNC(=O)[C@H]2C[C@@H](C#N)NC(=O)[C@@H]2[C@@H]3[C@H](CN2C1=O)C3(C)C [Example 128]	> 20000 nM
N#C[C@@H]1C[C@@H]2C(=O)NC[C@@H]2CCCC[C@H](NC(=O)C2(C(F)(F)F)CC2)C(=O)N2CCC3(CC3)C[C@H]2C(=O)N1 [Example 151]	< 100 nM
CC1(C)[C@@H]2[C@H]3C(=O)N[C@H](C#N)C[C@@H]4C(=O)NC[C@@H]4CCCC[C@H](NS(=O)(=O)C4(C)CC4)C(=O)N3C[C@@H]21 [Example 159]	< 100 nM

Compound	IC50
CC1(C)[C@@H]2[C@H]3C(=O)N[C@H](C#N)C[C@@H]4C(=O)NC[C@@H]4CCCC[C@H](NC(=O)C4CCC4)C(=O)N3C[C@@H]21 [Example 76]	< 100 nM
CC1(C)[C@@H]2[C@H]3C(=O)N[C@H](C#N)C[C@@H]4C(=O)NC[C@@H]4CCCC[C@H](Nc4cc(C(F)(F)F)ncn4)C(=O)N3C[C@@H]21 [Example 163]	< 100 nM
CC(C)C[C@@H]1NC(=O)[C@H](Cc2ccccc2)CCC[C@H]2CNC(=O)[C@H]2C[C@@H](C=O)NC1=O [Example 12]	< 100 nM
CC(C)(C)C(=O)N[C@H]1CC/C=C/[C@H]2CNC(=O)[C@H]2C[C@@H](C#N)NC(=O)[C@@H]2[C@H]3CCC[C@H]3CN2C1=O [Example 86]	< 100 nM
CC(C)(C)NC(=O)[C@H]1CCCC[C@H]2CNC(=O)[C@H]2C[C@@H](C#N)NC(=O)[C@@H]2[C@@H]3[C@H](CN2C1=O)C3(C)C [Example 167]	100 to 1000 nM
CC(C)(C)C(=O)N[C@H]1CCCC[C@H]2CCNC(=O)[C@H]2C[C@@H](C#N)NC(=O)[C@@H]2[C@@H]3[C@H](CN2C1=O)C3(C)C [Example 69]	< 100 nM
CC1(C)[C@@H]2[C@H]3C(=O)N[C@H](C#N)C[C@@H]4C(=O)NC[C@@H]4CCCC[C@H](NC(=O)c4ccc(F)cc4C(F)(F)F)C(=O)N3C[C@@H]21 [Example 139]	< 100 nM
CC1(C)[C@@H]2[C@H]3C(=O)N[C@H](C#N)C[C@@H]4C(=O)NC[C@@H]4CCCC[C@H](NS(=O)(=O)c4ccc(F)cc4F)C(=O)N3C[C@@H]21 [Example 157]	< 100 nM
CC(C)(C)OC(=O)N[C@H]1CCCC[C@H]2CNC(=O)[C@H]2C[C@@H](C#N)NC(=O)[C@@H]2[C@H]3CC[C@H](C3)N2C1=O [Example 127]	1000 to 20000 nM
CC1(C)[C@@H]2[C@H]3C(=O)N[C@H](C#N)C[C@@H]4C(=O)NCC[C@@H]4CCCC[C@H](NC(=O)C(F)(F)F)C(=O)N3C[C@@H]21 [Example 104]	< 100 nM
CC(C)(C)C(=O)N[C@H]1CCCC[C@H]2CNC(=O)[C@H]2C[C@@H](C#N)NC(=O)[C@@H]2[C@@H]3[C@H](CN2C1=O)C3(C)C [Example 55]	< 100 nM
CC(C)C[C@H]1C(=O)N[C@H](C#N)C[C@@H]2C(=O)NC[C@@H]2CCCC[C@H](NC(=O)C(C)(C)C)C(=O)N1C [Example 57]	100 to 1000 nM
CC(C)(C)OC(=O)N[C@H]1CCCC[C@H]2CNC(=O)[C@H]2C[C@@H](C#N)NC(=O)[C@@H]2CC3(CC3)CN2C1=O [Example 105]	< 100 nM
CC(C)C[C@@H]1NC(=O)CCCCC[C@H]2CNC(=O)[C@@H]2C[C@@H](C=O)NC1=O [Example 32]	< 100 nM
CC1(C)[C@@H]2[C@H]3C(=O)N[C@H](C#N)C[C@@H]4C(=O)NC[C@@H]4CCCC[C@H](NC(=O)C4CC(F)(F)C4)C(=O)N3C[C@@H]21 [Example 62]	< 100 nM
CC1(C)[C@@H]2[C@H]3C(=O)N[C@H](C#N)C[C@@H]4C(=O)NC[C@@H]4CCCC[C@H](NC(=O)CC4CCCC4)C(=O)N3C[C@@H]21 [Example 90]	< 100 nM
CC(C)(C)CC(=O)N[C@H]1CCCC[C@H]2CNC(=O)[C@H]2C[C@@H](C#N)NC(=O)[C@@H]2[C@@H]3[C@H](CN2C1=O)C3(C)C [Example 73]	< 100 nM
CC(C)(C)OC(=O)N[C@H]1CCC[C@H]2CNC(=O)[C@H]2C[C@@H](C#N)NC(=O)[C@@H]2[C@@H]3[C@H](CN2C(=O)C1)C3(C)C [Example 125]	100 to 1000 nM
CC(C)C[C@@H]1NC(=O)[C@@H](NC(=O)C(C)(C)C)CC/C=C\[C@H]2CNC(=O)[C@H]2C[C@@H](C#N)NC1=O [Example 59]	100 to 1000 nM
CC1(C)[C@@H]2[C@H]3C(=O)N[C@H](C#N)C[C@@H]4C(=O)NC[C@@H]4CCCC[C@H](NC(=O)c4ccncn4)C(=O)N3C[C@@H]21 [Example 91]	< 100 nM
